Assay results from patent US9981976B2, “Piperidine substituted pyrazolo[1,5-A]pyrimidine derivatives with inhibitory activity on the replication of the respiratory syncytial virus (RSV)” (priority 2014, dated 2018).

Columns and labels:
[1] = tested on: HeLa cells; assay: Cytotoxicity in HeLa cells, ATP content (ATPlite kit); conditions: three days incubation, CC50 = 50% concentration for cytotoxicity
Procedure: Black 384-well clear-bottom microtiter plates (Corning, Amsterdam, The Netherlands) were filled via acoustic drop ejection using the echo liquid handler (Labcyte, Sunnyvale, Calif.). 200 nL of compound stock solutions (100% DMSO) were transferred to the assay plates. 9 serial 4-fold dilutions of compound were made, creating per quadrant the same compound concentration. The assay was initiated by adding 10 μL of culture medium to each well (RPMI medium without phenol red, 10% FBS-heat inactivated, 0.04% gentamycin (50 mg/mL). All addition steps are done by using a multidrop dispenser (Thermo Scientific, Erembodegem, Belgium). Next, rgRSV224 virus (MOI=1) diluted in culture medium was added to the plates. rgRSV224 virus is an engineered virus that includes an additional GFP gene (Hallak L K, Spillmann D, Collins P L, Peeples M E. Glycosaminoglycan sulfation requirements for respiratory syncytial virus infection; Journal of virology (2000), 74(22), 10508-13) and was in-licensed from the NIH (Bethesda, Md., USA). Finally, 20 μL of a HeLa cell suspension (3,000 cells/well) were plated. Medium, virus- and mock-infected controls were included in each test. The wells contain 0.05% DMSO per volume. Cells were incubated at 37° C. in a 5% CO2 atmosphere. Three days post-virus exposure, viral replication was quantified by measuring GFP expression in the cells by an in house developed MSM laser microscope (Tibotec, Beerse, Belgium). The EC50 was defined as the 50% inhibitory concentration for GFP expression. In parallel, compounds were incubated for three days in a set of white 384-well microtiter plates (Corning) and the cytotoxicity of compounds in HeLa cells was determined by measuring the ATP content of the cells using the ATPlite kit (Perkin Elmer, Zaventem, Belgium) according to the manufacturer's instructions. The CC50 was defined as the 50% concentration for cytotoxicity.

[2] = tested on: rgRSV224 virus; assay: microbe, parasite or virus in culture; type: cell-based, respiratory syncytial virus (RSV); conditions: for EC50: human respiratory syncytial virus, HeLa, 72 h, read-out: RSV HELA pEC50, rgRSV224 virus (MOI=1), HeLa cells, GFP expression three days post-virus exposure (converted)

| Compound | SI TOX HELA [1] | EC50 [2] [nM] | RSV HELA pEC50 ([2]; rgRSV224 virus (MOI=1), HeLa cells, GFP expression three days post-virus exposure) |
| --- | --- | --- | --- |
| Cc1ccc2nc(C)nc(N3CCCC[C@H]3c3cc4nc(N5CC(O)C5)c(C)cn4n3)c2c1 [P43, (S)-1-(2-(1-(2,6-dimethylquinazolin-4-yl)piperidin-2-yl)-6-methyl-pyrazolo[1,5-a]pyrimidin-5-yl)azetidin-3-ol] | 4.2 | 15800 |  |
| Cc1ccc(C)c2c(N3CCCCC3c3cc4nc(N5CCC5)cc(N5CCOCC5)n4n3)ncnc12 (centres unmarked) [P66, 4-(5-(azetidin-1-yl)-2-(1-(5,8-dimethylquinazolin-4-yl)piperidin-2-yl)-pyrazolo[1,5-a]pyrimidin-7-yl)morpholine] |  | 100 |  |
| CNC(=O)c1nc(N2CCCCC2c2cc3nc(N4CCC4)cc(N4CCOCC4)n3n2)c2c(C)cccc2n1 (centres unmarked) [P70, 4-(2-(5-(azetidin-1-yl)-7-morpholinopyrazolo[1,5-a]pyrimidin-2-yl)-piperidin-1-yl)-N,5-dimethylquinazoline-2-carboxamide] | 4.3 | 631 |  |
| CCOc1cccc2ncnc(N3CCCCC3c3cc4nc(N5CCC5)cc(N5CCOCC5)n4n3)c12 (centres unmarked) [P61, 4-(5-(azetidin-1-yl)-2-(1-(5-ethoxyquinazolin-4-yl)piperidin-2-yl)-pyrazolo[1,5-a]pyrimidin-7-yl)morpholine] | <4 | 31.6 |  |
| Cc1cccc2nc(-c3cnoc3)nc(N3CCCCC3c3cc4nc(N5CCC5)cc(N5CCOCC5)n4n3)c12 (centres unmarked) [P72, 4-(5-(azetidin-1-yl)-2-(1-(2-(isoxazol-4-yl)-5-methylquinazolin-4-yl)-piperidin-2-yl)pyrazolo[1,5-a]pyrimidin-7-yl)morpholine] | 4.5 | 25.1 |  |
| Cc1nc2c(N3CCCCC3c3cc4nc(N5CCC5)cc(N5CCOCC5)n4n3)ncnc2o1 (centres unmarked) [P65, 7-(2-(5-(azetidin-1-yl)-7-morpholinopyrazolo[1,5-a]pyrimidin-2-yl)-piperidin-1-yl)-2-methyloxazolo[5,4-d]pyrimidine] | <4.6 | 15.8 |  |
| COC(=O)Nc1nc(N2CCCCC2c2cc3nc(N4CCC4)cc(N4CCOCC4)n3n2)c2c(C)cccc2n1 (centres unmarked) [P29, methyl (4-(2-(5-(azetidin-1-yl)-7-morpholinopyrazolo[1,5-a]-pyrimidin-2-yl)piperidin-1-yl)-5-methylquinazolin-2-yl)carbamate] | 4.5 | 398 |  |
| Cc1cccc2ncnc(N3CCCCC3c3cc4nc(N5CCC5)cc(N5CCN(C(=O)NC(C)C)CC5)n4n3)c12 (centres unmarked) [P54, 4-(5-(azetidin-1-yl)-2-(1-(5-methylquinazolin-4-yl)piperidin-2-yl)-pyrazolo[1,5-a]pyrimidin-7-yl)-N-isopropylpiperazine-1-carboxamide] | 4.5 | 25.1 |  |
| Cc1ccc2ncnc(N3CCCCC3c3cc4nc(N5CCC5)cc(N5CCOCC5)n4n3)c2c1C (centres unmarked) [P64, 4-(5-(azetidin-1-yl)-2-(1-(5,6-dimethylquinazolin-4-yl)piperidin-2-yl)-pyrazolo[1,5-a]pyrimidin-7-yl)morpholine] | <4.6 | 15.8 |  |
| Cc1ccc2ncnc(N3CCCCC3c3cc4nc(N5CCC(N)C5)ccn4n3)c2c1 (stereo in doubt) [P49, (3S)-1-(2-(1-(6-methylquinazolin-4-yl)piperidin-2-yl)pyrazolo[1,5-a]pyrimidin-5-yl)pyrrolidin-3-amine] | 4.3 | 794 |  |
| Cc1cccc2ncnc(N3CCCCC3c3cc4nc(N5CCC5)cc(N5CCNCC5)n4n3)c12 (centres unmarked) [P53, 4-(2-(5-(azetidin-1-yl)-7-(piperazin-1-yl)pyrazolo[1,5-a]pyrimidin-2-yl)piperidin-1-yl)-5-methylquinazoline] | 4.6 | 50.1 |  |
| CCc1cccc2ncnc(N3CCCCC3c3cc4nc(N5CCC5)cc(N5CCOCC5)n4n3)c12 (centres unmarked) [P58, 4-(5-(azetidin-1-yl)-2-(1-(5-ethylquinazolin-4-yl)piperidin-2-yl)-pyrazolo[1,5-a]pyrimidin-7-yl)morpholine] | <4 | 501 |  |
| Cc1ccc2ncnc(N3CCCCC3c3cc4nc(N5CC(N)C5)c(C)cn4n3)c2c1 (centres unmarked) [P13, 1-(6-methyl-2-(1-(6-methylquinazolin-4-yl)piperidin-2-yl)pyrazolo-[1,5-a]pyrimidin-5-yl)azetidin-3-amine] | 4.3 | 398 |  |
| Cc1cccc2ncnc(N3CCCC[C@H]3c3cc4nc(N5CCC5)cc(N5CCOCC5)n4n3)c12 [P19, (S)-4-(5-(azetidin-1-yl)-2-(1-(5-methylquinazolin-4-yl)piperidin-2-yl)pyrazolo[1,5-a]pyrimidin-7-yl)morpholine] | <4.3 | 10 |  |
| Cc1cc(C)c2c(N3CCCCC3c3cc4nc(N5CCC5)cc(N5CCOCC5)n4n3)ncnc2c1 (centres unmarked) [P59, 4-(5-(azetidin-1-yl)-2-(1-(5,7-dimethylquinazolin-4-yl)piperidin-2-yl)-pyrazolo[1,5-a]pyrimidin-7-yl)morpholine] | 4.3 | 398 |  |
| Clc1ccc2ncnc(N3CCCC[C@H]3c3cc4nc(N5CCC5)cc(N5CCOCC5)n4n3)c2c1 [P2, (S)-4-(5-(azetidin-1-yl)-2-(1-(6-chloroquinazolin-4-yl)piperidin-2-yl)-pyrazolo[1,5-a]pyrimidin-7-yl)morpholine] | 4.4 | 316 |  |
| CCc1ccc2ncnc(N3CCCCC3c3cc4nc(N5CCC5)cc(N5CCOCC5)n4n3)c2c1C (centres unmarked) [P63, 4-(5-(azetidin-1-yl)-2-(1-(6-ethyl-5-methylquinazolin-4-yl)piperidin-2-yl)pyrazolo[1,5-a]pyrimidin-7-yl)morpholine] | 4.4 | 398 |  |
| COC(=O)c1nc(N2CCCCC2c2cc3nc(N4CCC4)cc(N4CCOCC4)n3n2)c2c(C)cccc2n1 (centres unmarked) [P67, methyl 4-(2-(5-(azetidin-1-yl)-7-morpholinopyrazolo[1,5-a]pyrimidin-2-yl)piperidin-1-yl)-5-methylquinazoline-2-carboxylate] | <4.3 | 126 |  |
| Cc1cn2nc([C@@H]3CCCCN3c3ncnc4cccc(C)c34)cc2nc1N1CC(O)C1 [P25, (S)-1-(6-methyl-2-(1-(5-methylquinazolin-4-yl)-piperidin-2-yl)pyrazolo[1,5-a]pyrimidin-5-yl)azetidin-3-ol] | <4.6 | 31.6 |  |
| Cc1cccc2ncnc(N3CCCCC3c3cc4nc(N5CCC5)cc(N5CCN(S(C)(=O)=O)CC5)n4n3)c12 (centres unmarked) [P55, 4-(2-(5-(azetidin-1-yl)-7-(4-(methylsulfonyl)piperazin-1-yl)pyrazolo-[1,5-a]pyrimidin-2-yl)piperidin-1-yl)-5-methylquinazoline] | 4.3 | 15.8 |  |
| Cc1cccc2ncnc(N3CCCCC3c3cc4nc(N5CCC5)cc(N5CCOCC5)n4n3)c12 (centres unmarked) [P17, 4-(5-(azetidin-1-yl)-2-(1-(5-methylquinazolin-4-yl)piperidin-2-yl)-pyrazolo[1,5-a]pyrimidin-7-yl)morpholine] | 4.4 | 3.98 |  |
| Cc1c(C2CC2)nc2cc(C3CCCCN3c3ncnc4cccc(C)c34)nn2c1N1CCOCC1 (centres unmarked) [P47, 4-(5-cyclopropyl-6-methyl-2-(1-(5-methylquinazolin-4-yl)piperidin-2-yl)pyrazolo[1,5-a]pyrimidin-7-yl)morpholine] | 4.6 | 501 |  |
| Cc1cn2nc(C3CCCCN3c3nc(NS(C)(=O)=O)nc4cccc(C)c34)cc2nc1N1CC(O)C1 (centres unmarked) [P41, N-(4-(2-(5-(3-hydroxyazetidin-1-yl)-6-methylpyrazolo[1,5-a]-pyrimidin-2-yl)piperidin-1-yl)-5-methylquinazolin-2-yl)methanesulfonamide] | <4 | 79.4 |  |
| Cc1ccc2ncnc(N3CCCCC3c3cc4nc(N5CCC5)cc(N5CCOCC5)n4n3)c2c1 (centres unmarked) [P4, 4-(5-(azetidin-1-yl)-2-(1-(6-methylquinazolin-4-yl)piperidin-2-yl)-pyrazolo[1,5-a]pyrimidin-7-yl)morpholine] | <4 | 158 |  |
| Clc1ccc2ncnc(N3CCCCC3c3cc4nc(N5CCC5)cc(N5CCOCC5)n4n3)c2c1 (centres unmarked) [P1, 4-(5-(azetidin-1-yl)-2-(1-(6-chloroquinazolin-4-yl)piperidin-2-yl)-pyrazolo[1,5-a]pyrimidin-7-yl)morpholine] | 4.4 | 794 |  |
| CS(=O)(=O)Nc1nc(N2CCCC[C@H]2c2cc3nc(N4CCC4)cc(N4CCOCC4)n3n2)c2cc(Cl)ccc2n1 [P33, (S)—N-(4-(2-(5-(azetidin-1-yl)-7-morpholinopyrazolo[1,5-a]-pyrimidin-2-yl)piperidin-1-yl)-6-chloroquinazolin-2-yl)methanesulfonamide] | 4.2 |  | 7.88 |
| Cc1ccc2ncnc(N3CCCC[C@@H]3c3cc4nc(N5CC[C@H](N)C5)ccn4n3)c2c1 [P50, (S)-1-(2-((R)-1-(6-methylquinazolin-4-yl)piperidin-2-yl)pyrazolo-[1,5-a]pyrimidin-5-yl)pyrrolidin-3-amine] | 4.3 | 631 |  |
| Cc1cccc2ncnc(N3CCCC[C@@H]3c3cc4nc(N5CCC5)cc(N5CCOCC5)n4n3)c12 [P18, (R)-4-(5-(azetidin-1-yl)-2-(1-(5-methylquinazolin-4-yl)piperidin-2-yl)-pyrazolo[1,5-a]pyrimidin-7-yl)morpholine] | <4.3 | > 1000 |  |
| Cc1cn2nc([C@H]3CCCCN3c3ncnc4cccc(C)c34)cc2nc1N1CC(O)C1 [P24, (R)-1-(6-methyl-2-(1-(5-methylquinazolin-4-yl)piperidin-2-yl)pyrazolo[1,5-a]-pyrimidin-5-yl)azetidin-3-ol] | <4.6 | > 25100 |  |
| Clc1cccc2ncnc(N3CCCCC3c3cc4nc(N5CCC5)cc(N5CCOCC5)n4n3)c12 (centres unmarked) [P35, 4-(5-(azetidin-1-yl)-2-(1-(5-chloroquinazolin-4-yl)piperidin-2-yl)-pyrazolo[1,5-a]pyrimidin-7-yl)morpholine] | 4.4 | 63.1 |  |
